Where two headings read alike, the source gives them in different places.
How the values were obtained:
[1] = test system: normal proliferating T cells (d6 T cells)
Procedure: Apoptotic cell death was determined by DNA fragmentation after 48 hours.
Since proliferating cells are in general more susceptible to drug-induced apoptotic cell death, the T cells were activated through PHA stimulation and cultured for further 5 days under supplementation of IL-2 (so called d6 T cells).

CDK4 = CDK4 (Homo sapiens, UniProt P11802); assay: Inhibition of the kinase CDK4; type: biochemical
Procedure: (§1) Contrary to this, the known compound Quercetin does inhibit the kinases CDK4 and CDK6 (applied at a dose of 50 µM).

CDK6 = CDK6 (Homo sapiens, UniProt Q00534); assay: Inhibition of the kinase CDK6; type: biochemical
Procedure: as §1

leukemic CEM cells = assay: Killing of leukemic CEM T-cells (DNA fragmentation); type: cell-based
[2] = test system: RNAPII C-terminal domain Ser2 phosphorylation; assay: Phenylephrine-induced phosphorylation of RNAPII in ventricular cardiac myocytes; type: cell-based, rat
From the text: To test Wogonin in hypertrophic conditions, ventricular cardiac myocytes from neonatal rats were isolated. Hypertrophy was induced by stimulating the cells (cardiomyocytes) with phenylephrine.

[3] = test system: ventricular cardiac myocytes; assay: Tolerance of the compound by ventricular cardiac myocytes; type: cell-based, rat; conditions: even at higher doses
From the text: To test Wogonin in hypertrophic conditions, ventricular cardiac myocytes from neonatal rats were isolated.

CDK2 = CDK2 (Homo sapiens, UniProt P24941); assay: Inhibition of the cellular kinase CDK2; type: biochemical
Procedure: The amount of phosphorylated substrate was determined by Western Blot using phospho-specific antibodies.

CDK9 = molecular target: T1, CDK9 (Homo sapiens, UniProt P50750); assay: Duration of the inhibitory effect on CDK9 in CEM; type: cell-based; conditions: dose of 50 μM in CEM
T1 construct: endogenous in cells; host or cells: CEM
T1 sequence (P50750 whole entry): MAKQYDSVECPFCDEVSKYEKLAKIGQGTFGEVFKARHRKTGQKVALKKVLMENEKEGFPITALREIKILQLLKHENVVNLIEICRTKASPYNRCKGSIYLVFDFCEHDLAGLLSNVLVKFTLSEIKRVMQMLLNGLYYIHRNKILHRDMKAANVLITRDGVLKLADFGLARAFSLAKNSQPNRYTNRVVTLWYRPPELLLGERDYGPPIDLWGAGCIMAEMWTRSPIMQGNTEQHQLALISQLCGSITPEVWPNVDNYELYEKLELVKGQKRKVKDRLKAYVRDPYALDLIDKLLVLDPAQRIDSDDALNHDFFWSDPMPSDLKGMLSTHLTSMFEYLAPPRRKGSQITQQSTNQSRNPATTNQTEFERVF
T1 sequence (O60563 whole entry partner): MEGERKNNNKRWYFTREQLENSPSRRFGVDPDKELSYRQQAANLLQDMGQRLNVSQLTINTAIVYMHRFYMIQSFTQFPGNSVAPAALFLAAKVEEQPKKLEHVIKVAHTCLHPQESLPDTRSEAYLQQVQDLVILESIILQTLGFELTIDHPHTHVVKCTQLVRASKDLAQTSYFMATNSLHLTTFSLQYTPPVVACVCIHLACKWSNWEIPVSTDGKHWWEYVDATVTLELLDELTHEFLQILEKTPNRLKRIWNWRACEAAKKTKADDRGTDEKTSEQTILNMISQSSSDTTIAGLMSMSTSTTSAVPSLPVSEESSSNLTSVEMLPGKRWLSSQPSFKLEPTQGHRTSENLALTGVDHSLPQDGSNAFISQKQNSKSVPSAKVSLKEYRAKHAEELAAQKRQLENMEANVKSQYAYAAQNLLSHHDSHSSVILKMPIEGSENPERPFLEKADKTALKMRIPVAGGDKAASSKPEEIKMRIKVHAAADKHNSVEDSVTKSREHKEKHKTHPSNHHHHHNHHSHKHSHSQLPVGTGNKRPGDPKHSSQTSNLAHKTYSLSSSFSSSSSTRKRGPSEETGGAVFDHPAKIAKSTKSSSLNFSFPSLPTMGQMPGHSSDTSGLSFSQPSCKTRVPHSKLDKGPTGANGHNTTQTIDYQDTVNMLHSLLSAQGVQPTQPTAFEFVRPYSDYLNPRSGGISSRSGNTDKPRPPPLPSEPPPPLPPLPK

CDK6, sequence (Q00534 whole entry, species assumed): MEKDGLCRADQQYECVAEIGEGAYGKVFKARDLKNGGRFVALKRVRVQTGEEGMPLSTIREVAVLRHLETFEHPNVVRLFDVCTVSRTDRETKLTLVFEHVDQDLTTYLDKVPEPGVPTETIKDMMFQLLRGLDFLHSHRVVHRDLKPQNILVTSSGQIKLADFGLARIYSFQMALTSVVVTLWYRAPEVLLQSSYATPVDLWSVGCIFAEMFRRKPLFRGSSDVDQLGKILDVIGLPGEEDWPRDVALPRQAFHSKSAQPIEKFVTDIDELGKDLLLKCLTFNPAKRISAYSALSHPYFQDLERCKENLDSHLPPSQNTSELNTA
CDK4, sequence (P11802 whole entry, species assumed): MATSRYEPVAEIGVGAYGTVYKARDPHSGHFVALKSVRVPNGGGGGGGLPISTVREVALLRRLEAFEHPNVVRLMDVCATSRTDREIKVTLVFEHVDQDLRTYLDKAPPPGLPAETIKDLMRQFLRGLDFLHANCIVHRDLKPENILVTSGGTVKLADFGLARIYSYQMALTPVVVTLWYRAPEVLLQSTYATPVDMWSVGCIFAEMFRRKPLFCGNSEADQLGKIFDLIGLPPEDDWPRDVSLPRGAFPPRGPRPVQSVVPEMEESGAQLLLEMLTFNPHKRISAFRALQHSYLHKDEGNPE

SMILES | DNA-fragmentation ([1]; human, 48 h, 10 μM) | inhibition of CDK4 (in words) (CDK4; applied at a dose of 50 μM) | inhibition of CDK6 (in words) (CDK6; applied at a dose of 50 μM) | concentration required to kill leukemic cells (leukemic CEM cells) | inhibition of phosphorylation of the RNAPII C-terminal domain at Ser2 (in words) ([2]; no concentration or cell type given) | DNA-fragmentation ([1]; T-cells, 48 hours, dose of 10 μM) | DNA-fragmentation compared with Quercetin (in words) ([1]; T-cells, 48 hours, doses of 10 μM, 50 μM and 100 μM) | toxicity to normal T cells compared to other flavones tested (in words) ([1]; d6 T cells) | toxicity to normal proliferating T cells (in words) ([1]; up to concentrations of 100 μM, in comparison to leukemic CEM cells) | tolerance by the cells (in words) [3] | inhibition of CDK4 (in words) (CDK4; no concentration given) | inhibition of CDK6 (in words) (CDK6; no concentration given) | inhibition of CDK2 (in words) (CDK2) | duration of inhibitory effect on CDK9 compared with Quercetin (in words) (CDK9) | inhibition of phenylephrine-induced phosphorylation of RNAPII (in words) ([2]; neonatal rat cardiomyocytes, 50 μM in a solution)
O=c1c(O)c(-c2ccc(O)c(O)c2)oc2cc(O)cc(O)c12 [Quercetin, reference compound] | more than 15% | does inhibit | does inhibit |  |  |  |  |  |  |  |  |  |  |  | 
CN1CC[C@H](c2c(O)cc(O)c3c(=O)cc(-c4ccccc4Cl)oc23)[C@H](O)C1 [Flavopiridol, reference compound] |  |  |  | ~500 nM | inhibits phosphorylation |  |  |  |  |  |  |  |  |  | 
COc1c(O)cc(O)c2c(=O)cc(-c3ccccc3)oc12 [Wogonin, 5,7-Dihydroxy-8-methoxy-flavone] |  | do not inhibit | do not inhibit |  |  | less than 5% | much less DNA-fragmentation | particularly low toxicity | no or very low toxicity | well supported by the cells | does not strongly inhibit | does not strongly inhibit | does not strongly inhibit | much longer inhibitory effect | almost completely inhibited

— patent US20130225530A1 (priority 2010, published 2013)
